Consider 4 compounds from patent US20060258582A1, “Method of treating myelodysplastic syndromes” (Scios, Inc., priority 2004, published 2006).

SMILES strings stand for the structures.

One assay addresses p38β (Homo sapiens, UniProt Q15759). In words: selectivity for p38α over p38β. The class given is biochemical. How it is done: (§1) The p38α MAPK inhibitor compound 57 was synthesized by Medicinal Chemistry (Scios, Inc., Fremont, Calif.). compound 57 has an IC50 of 9 nM for inhibition of p38α based on direct enzymatic assays, about 10-fold selectivity for p38α over p38β, and at least 2000-fold selectivity for p38α over a panel of 20 other kinases, including other MAPKs.

In the next assay the target is p38α (Homo sapiens, UniProt Q16539). In words: direct enzymatic assay for inhibition of p38α. The class given is biochemical. The note with it: direct enzymatic assays. How it is done:
as §1

For assay [1], the system named is TNFα secretion from BMMNC. In words: basal and LPS-induced TNFα secretion from normal BMMNC, ELISA. It is filed as cell-based. The note with it: Homo sapiens, basal or LPS-induced normal BMMNC cultures, 24 h, read-out: IC50 for inhibition of TNFα secretion. The method, then: BMMNC (1×10^6) from a normal healthy donor were cultured in the absence and presence of increasing concentrations of compound 57 for 24 hours without or with 10 ng/ml LPS. TNFα concentration in cell supernatants were determined by ELISA. Figure represents Mean+/−SD of three independent experiments.
(§2) TNFα, IL-6, VEGF, and IFNγ concentrations of the cell culture supernatants were assayed using ELISA kits from BioSource International (Camarillo, Calif.). MCP-1, MMP-2 and MMP-9 concentrations were assayed using ELISA kits from R&D Systems.
For orientation: In an ELISA, binding on a coated surface is turned into a signal by an enzyme label.

Another assay deals with IFNγ production. In words: IFNγ production in IL-12 and IL-18-induced BMMNC, ELISA. It is filed as cell-based. The note with it: Homo sapiens, 24 hours, read-out: IC50 for block of IFNγ production. How it is done:
BMMNC (1×10^6) from a normal healthy donor were stimulated with IL-12, IL-18 or both in the presence or absence of increasing concentrations of compound 57 for 24 h. IFN-γ concentration in cell supernatants was determined by ELISA. Figure represents Mean+/−SD of three independent experiments.
as §2

Another assay deals with BMSC. In words: cDNA microarray analysis of chemokines in TNFα- or IL-1β-stimulated BMSC. The class given is cell-based, human. From the text: Details of microarray and data analysis have been described previously. The data was normalized using the maNorm function in array package of Bioconductor version 1.5.8. Differential expression values were expressed as the ratio of the median of background-subtracted fluorescence intensity of the experimental RNA to the median of background-subtracted fluorescence intensity of the control RNA. The total BMSC RNA was extracted from cells using Qiagen's RNeasy kit (Valencia, Calif.). Arrays were probed in quadruplicate for a total of 16 hybridizations: control versus TNFα (24 hours), TNFα versus compound 57+TNFα (24 hours), control versus IL-1β (24 hours), IL-1β versus compound 57+IL-1β (24 hours).

In assay [2] the test system is LPS-induced TNFα secretion in whole human blood. In words: cell based assay, LPS-induced TNFα secretion in whole human blood. Particulars: read-out: IC50 for inhibition of LPS-induced TNFα secretion. How it is done:
Other in vitro assays can assess the production of TNF-α as a correlation to p38 MAP kinase activity. One such example is a Human Whole Blood Assay. In this assay, venous blood is collected from, e.g., healthy male volunteers into a heparinized syringe and is used within 2 hours of collection. Test compounds are dissolved in 100% DMSO and 1 μl aliquots of drug concentrations ranging from 0 to 1 mM are dispensed into quadruplicate wells of a 24-well microtiter plate (Nunclon Delta SI, Applied Scientific Co., San Francisco, Calif.). Whole blood is added at a volume of 1 ml/well and the mixture is incubated for 15 minutes with constant shaking (Titer Plate Shaker, Lab-Line Instruments, Inc., Melrose Park, Ill.) at a humidified atmosphere of 5% CO2 at 37° C. Whole blood is cultured either undiluted or at a final dilution of 1:10 with RPMI 1640 (Gibco 31800+NaHCO3, Life Technologies, Rockville, Md. and Scios, Inc., Sunnyvale, Calif.). At the end of the incubation period, 10 μl of LPS (E. coli 0111:B4, Sigma Chemical Co., St. Louis, Mo.) is added to each well to a final concentration of 1 or 0.1 μg/ml for undiluted or 1:10 diluted whole blood, respectively. The incubation is continued for an additional 2 hours. The reaction is stopped by placing the microtiter plates in an ice bath, and plasma or cell-free supernates are collected by centrifugation at 3000 rpm for 10 minutes at 4° C. […]

Another assay deals with normal CD34+ progenitors. In words: methylcellulose clonogenic assay, cytokine-suppressed normal CD34+ progenitors. The class given is cell-based, human. The method, then: Primary bone marrow derived CD34+ cells were cultured in methylcellulose in the presence and absence of 20 ng/ml TNFα and with the indicated concentrations of compound 57 (nM). BFU-E and CFU-GM colonies were scored on Day 14. Results are expressed as means+/−S.E.M. of three independent experiments.
Primary bone marrow derived CD34+ cells were cultured in methylcellulose in the presence and absence of […] IFNγ and with the indicated concentrations of the p38α inhibitors (compound 57; nM) or compound 162. BFU-E and CFU-GM colonies were scored on Day 14. Results are expressed as means+/−S.E.M. of three independent experiments.
All participants in the study signed informed consent, approved by the institutional review board of UT Southwestern and Dallas VA Medical Center. Hematopoietic progenitor colony formation was determined by clonogenic assays in methylcellulose, as detailed in previous studies. A total of 1×10^4 isolated CD34+ progenitor cells in 0.4 ml IMDM+2% FBS were resuspended in 4 ml MethoCult® (Stem Cell Technologies) and vortexed vigorously. The CD34+ cell:methylcellulose mixture was dispensed into 35 mm culture dishes (1×10^3 cells/35 mm plate) using sterile 3 cc syringe with attached sterile 16-gauge blunt-end needle. […] Granulocyte/macrophage colony-forming (CFU-GM) units and erythroid burst forming units (BFU-E) from different samples were scored on day 14 of culture.

Another assay concerns IFNγ. In words: induction of IFNγ by anti-CD3 antibody. It is filed as cell-based. The note with it: data not shown.
The test system of a further assay is MDS CD34+ progenitors. In words: methylcellulose clonogenic assay, MDS CD34+ progenitors. It is filed as cell-based, human. Particulars: for erythroid (BFU-E) and myeloid (CFU-GM) colony formation in MDS CD34+ bone marrow cells: in vitro, methylcellulose. The method, then: MDS BM-derived CD34+ cells from 19 patients with MDS (Table 5) were cultured in methylcellulose in the presence and absence of increasing concentrations of compound 57. Results are expressed as means+/−SEM of 19 independent experiments.
(A) Total colony numbers of (A) Blast Forming unit-erythroid (BFU-E) and (B) Colony forming unit-Granulocytic Macrophage (CFU-GM) before (control) and after compound 57 treatment (100 nM) of 19 patients with MDS (Table 5).
All participants in the study signed informed consent, approved by the institutional review board of UT Southwestern and Dallas VA Medical Center. Hematopoietic progenitor colony formation was determined by clonogenic assays in methylcellulose, as detailed in previous studies. A total of 1×10^4 isolated CD34+ progenitor cells in 0.4 ml IMDM+2% FBS were resuspended in 4 ml MethoCult® (Stem Cell Technologies) and vortexed vigorously. The CD34+ cell:methylcellulose mixture was dispensed into 35 mm culture dishes (1×10^3 cells/35 mm plate) using sterile 3 cc syringe with attached sterile 16-gauge blunt-end needle. Cell cultures were incubated at 37° C., 5% CO2 in air and >95% humidity for 14-16 days. Granulocyte/macrophage colony-forming (CFU-GM) units and erythroid burst forming units (BFU-E) from different samples were scored on day 14 of culture.

Where [3] appears, read: microarray ratio IL-1β versus compound 57+IL-1β, 24 hours.
The mark [4] stands for this setting: microarray ratio TNFα versus compound 57+TNFα.

Chain of p38β (Q15759 whole entry): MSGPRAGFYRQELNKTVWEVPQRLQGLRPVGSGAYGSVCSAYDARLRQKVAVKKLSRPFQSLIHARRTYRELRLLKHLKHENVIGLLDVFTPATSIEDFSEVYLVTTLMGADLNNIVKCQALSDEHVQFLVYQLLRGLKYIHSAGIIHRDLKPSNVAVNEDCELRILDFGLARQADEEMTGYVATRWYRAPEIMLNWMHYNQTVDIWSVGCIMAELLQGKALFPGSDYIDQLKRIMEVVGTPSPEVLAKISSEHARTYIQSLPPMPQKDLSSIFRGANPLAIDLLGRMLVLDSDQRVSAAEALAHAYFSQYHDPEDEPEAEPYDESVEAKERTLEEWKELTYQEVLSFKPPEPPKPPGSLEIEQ
Chain of p38α (Q16539 whole entry): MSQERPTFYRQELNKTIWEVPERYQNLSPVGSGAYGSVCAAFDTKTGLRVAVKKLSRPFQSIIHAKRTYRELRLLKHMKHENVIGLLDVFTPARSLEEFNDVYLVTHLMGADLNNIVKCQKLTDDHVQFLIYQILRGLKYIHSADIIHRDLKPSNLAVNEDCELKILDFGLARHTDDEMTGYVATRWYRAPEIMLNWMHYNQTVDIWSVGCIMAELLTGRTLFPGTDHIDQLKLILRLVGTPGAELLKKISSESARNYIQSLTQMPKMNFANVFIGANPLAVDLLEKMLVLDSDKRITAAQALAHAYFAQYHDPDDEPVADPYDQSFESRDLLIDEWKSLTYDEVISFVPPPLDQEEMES

Turning to `COc1cc2c(cc1C(=O)N1C[C@H](C)N(Cc3ccc(F)cc3)C[C@H]1C)c(C(=O)C(=O)N(C)C)cn2C` [compound 57], at p38β, the “selectivity for p38α over p38β” value is “about 10 fold”. On p38α, 9 nM corresponded to half-maximal inhibition (IC50). The IC50 (as a rule, the concentration that gives 50% inhibition) in assay [1] stood at 50 nM. The IC50 with IFNγ production was < 50 nM. Further, in the assay on BMSC (setting [3]), the “CCL2 (MCP-1) differential expression, C57 + IL-1β” value is given as −1.4; the “CCL7 (MCP3) differential expression, C57 + IL-1β” value is given as −1.5; the “CXCL1 (GROα) differential expression, C57 + IL-1β” value was −1.6; the “CXCL3 (GROγ) differential expression, C57 + IL-1β” value came to 1.3. Moreover, in the assay with BMSC (setting [3]), the “CXCL6 (GCP2) differential expression, C57 + IL-1β” value is on record as −1.6; the “CXCL10 (IP10) differential expression, C57 + IL-1β” value is 1.0; the “CXCL11 (ITAC) differential expression, C57 + IL-1β” value is given as 0.0; the “CXCL16 (SR-PSOX) differential expression, C57 + IL-1β” value is −4.2. In addition, in the assay with BMSC (setting [4]), the “CCL2 (MCP-1) differential expression, C57 + TNFα (24 h)” value is on record as −1.7; the “CCL7 (MCP3) differential expression, C57 + TNFα (24 h)” value is −2.2; the “CXCL1 (GROα) differential expression, C57 + TNFα (24 h)” value is listed as −2.9; the “CXCL3 (GROγ) differential expression, C57 + TNFα (24 h)” value is listed as −1.6. Further, in the assay with BMSC (setting [4]), the “CXCL6 (GCP2) differential expression, C57 + TNFα (24 h)” value was −5.3; the “CXCL10 (IP10) differential expression, C57 + TNFα (24 h)” value is listed as −2.9; the “CXCL11 (ITAC) differential expression, C57 + TNFα (24 h)” value is reported as −1.4; the “CXCL16 (SR-PSOX) differential expression, C57 + TNFα (24 h)” value is on record as 1.4. The IC50 in [2] is 1300 nM. In the assay on normal CD34+ progenitors (TNFα-treated CD34+ progenitors, 50 nM compound), the “increase in both BFU-E and CFU-GM colony numbers compared to those without compound” value is reported as “about 100%”. In addition, the “induction of IFNγ by anti-CD3 antibody” value in the assay with IFNγ is given as “not inhibited”. In addition, the “increase in myeloid and erythroid colony numbers in MDS progenitors” value in the assay on MDS CD34+ progenitors (20 nM-100 nM compound) was 2-3 fold.
As for `CN(C)C(=O)C(=O)c1c[nH]c2cc(Cl)c(C(=O)N3CCC(Cc4ccc(F)cc4)CC3)cc12` [compound 162], the “IFNγ-induced suppression of erythroid and myeloid colony formation” value in the assay with normal CD34+ progenitors (normal CD34+ progenitors, IFNγ, day 14) was “reverses”.
As to `COc1cccc(-c2cc(=O)c3ccccc3o2)c1N` [PD 98059], the “erythroid (BFU-E) and myeloid (CFU-GM) colony formation in MDS CD34+ bone marrow cells” value in the assay on MDS CD34+ progenitors is reported as “not observed”.
On the same count and under the same terms, under `CCc1nc(-c2ccc(OC)cc2)[nH]c1-c1ccncc1` [SB 202474] stands “not observed”.
